From ChEMBL document CHEMBL3045611, “Identification of the G143A mutation associated with QoI resistance in Cercospora beticola field isolates from Michigan, United States” (Pest Manag Sci, 2013)
Converted amounts (≈) assume the structure as drawn.

Tests used:
Format in all cases: functional, organism-based
[1] = system: Cercospora beticola; assay: Antifungal activity against Cercospora beticola isolate 11-1015-1 expressing cytb with alanine at codon 143 assessed as reduction in spore germination
[2] = system: Cercospora beticola; assay: Antifungal activity against Cercospora beticola isolate 11-1044-2 expressing cytb with alanine at codon 143 assessed as reduction in spore germination
[3] = system: Cercospora beticola; assay: Antifungal activity against Cercospora beticola isolate 11-1028-1 expressing cytb with alanine at codon 143 assessed as reduction in spore germination
[4] = system: Cercospora beticola; assay: Antifungal activity against Cercospora beticola isolate 11-1042-2 expressing cytb with alanine at codon 143 assessed as reduction in spore germination
[5] = system: Cercospora beticola; assay: Antifungal activity against Cercospora beticola isolate 11-1046-2 expressing cytb with alanine at codon 143 assessed as reduction in spore germination
[6] = system: Cercospora beticola; assay: Antifungal activity against Cercospora beticola isolate 11-1022-2 expressing cytb with alanine at codon 143 assessed as reduction in spore germination
[7] = system: Cercospora beticola; assay: Antifungal activity against Cercospora beticola isolate 11-1038-2 expressing cytb with alanine at codon 143 assessed as reduction in spore germination
[8] = system: Cercospora beticola; assay: Antifungal activity against Cercospora beticola isolate 98-19-M expressing cytb with glycine at codon 143 assessed as reduction in spore germination
[9] = system: Cercospora beticola; assay: Antifungal activity against Cercospora beticola isolate 98-10-M expressing cytb with glycine at codon 143 assessed as reduction in spore germination
[10] = system: Cercospora beticola; assay: Antifungal activity against Cercospora beticola isolate 11-1036-2 expressing cytb with alanine at codon 143 assessed as reduction in spore germination
[11] = system: Cercospora beticola; assay: Antifungal activity against Cercospora beticola isolate 11-1040-2 expressing cytb with alanine at codon 143 assessed as reduction in spore germination
[12] = system: Cercospora beticola; assay: Antifungal activity against Cercospora beticola isolate 11-1009-1 expressing cytb with alanine at codon 143 assessed as reduction in spore germination
[13] = system: Cercospora beticola; assay: Antifungal activity against Cercospora beticola isolate 11-1046-1 expressing cytb with alanine at codon 143 assessed as reduction in spore germination
[14] = system: Cercospora beticola; assay: Antifungal activity against Cercospora beticola isolate 11-1008-1 expressing cytb with alanine at codon 143 assessed as reduction in spore germination
[15] = system: Cercospora beticola; assay: Antifungal activity against Cercospora beticola isolate 98-13-M expressing cytb with glycine at codon 143 assessed as reduction in spore germination
[16] = system: Cercospora beticola; assay: Antifungal activity against Cercospora beticola isolate 11-1015-2 expressing cytb with alanine at codon 143 assessed as reduction in spore germination
[17] = system: Cercospora beticola; assay: Antifungal activity against Cercospora beticola isolate 11-1022-1 expressing cytb with alanine at codon 143 assessed as reduction in spore germination
[18] = system: Cercospora beticola; assay: Antifungal activity against Cercospora beticola isolate 11-1026-1 expressing cytb with alanine at codon 143 assessed as reduction in spore germination
[19] = system: Cercospora beticola; assay: Antifungal activity against Cercospora beticola isolate 11-1041-1 expressing cytb with alanine at codon 143 assessed as reduction in spore germination
[20] = system: Cercospora beticola; assay: Antifungal activity against Cercospora beticola isolate 99-521-29-M expressing cytb with glycine at codon 143 assessed as reduction in spore germination
[21] = system: Cercospora beticola; assay: Antifungal activity against Cercospora beticola isolate 11-1037-2 expressing cytb with alanine at codon 143 assessed as reduction in spore germination
[22] = system: Cercospora beticola; assay: Antifungal activity against Cercospora beticola isolate 11-1005-2 expressing cytb with alanine at codon 143 assessed as reduction in spore germination
[23] = system: Cercospora beticola; assay: Antifungal activity against Cercospora beticola isolate 11-1035-2 expressing cytb with alanine at codon 143 assessed as reduction in spore germination
[24] = system: Cercospora beticola; assay: Antifungal activity against Cercospora beticola isolate 11-1040-1 expressing cytb with alanine at codon 143 assessed as reduction in spore germination
[25] = system: Cercospora beticola; assay: Antifungal activity against Cercospora beticola isolate 11-1039-1 expressing cytb with alanine at codon 143 assessed as reduction in spore germination
[26] = system: Cercospora beticola; assay: Antifungal activity against Cercospora beticola isolate 98-101-5-M expressing cytb with glycine at codon 143 assessed as reduction in spore germination
[27] = system: Cercospora beticola; assay: Antifungal activity against Cercospora beticola isolate 11-1027-1 expressing cytb with alanine at codon 143 assessed as reduction in spore germination
[28] = system: Cercospora beticola; assay: Antifungal activity against Cercospora beticola isolate 11-1005-1 expressing cytb with alanine at codon 143 assessed as reduction in spore germination
[29] = system: Cercospora beticola; assay: Antifungal activity against Cercospora beticola isolate 11-1007-2 expressing cytb with alanine at codon 143 assessed as reduction in spore germination
[30] = system: Cercospora beticola; assay: Antifungal activity against Cercospora beticola isolate 11-1026-2 expressing cytb with alanine at codon 143 assessed as reduction in spore germination
[31] = system: Cercospora beticola; assay: Antifungal activity against Cercospora beticola isolate 99-233-3-M expressing cytb with glycine at codon 143 assessed as reduction in spore germination
[32] = system: Cercospora beticola; assay: Antifungal activity against Cercospora beticola isolate 11-1014-1 expressing cytb with alanine at codon 143 assessed as reduction in spore germination
[33] = system: Cercospora beticola; assay: Antifungal activity against Cercospora beticola isolate 11-1038-1 expressing cytb with alanine at codon 143 assessed as reduction in spore germination
[34] = system: Cercospora beticola; assay: Antifungal activity against Cercospora beticola isolate 11-1016-1 expressing cytb with alanine at codon 143 assessed as reduction in spore germination
[35] = system: Cercospora beticola; assay: Antifungal activity against Cercospora beticola isolate 11-1006-2 expressing cytb with alanine at codon 143 assessed as reduction in spore germination
[36] = system: Cercospora beticola; assay: Antifungal activity against Cercospora beticola isolate 98-150-M expressing cytb with glycine at codon 143 assessed as reduction in spore germination
[37] = system: Cercospora beticola; assay: Antifungal activity against Cercospora beticola isolate 11-1043-2 expressing cytb with alanine at codon 143 assessed as reduction in spore germination
[38] = system: Cercospora beticola; assay: Antifungal activity against Cercospora beticola isolate 98-12-M expressing cytb with glycine at codon 143 assessed as reduction in spore germination
[39] = system: Cercospora beticola; assay: Antifungal activity against Cercospora beticola isolate 11-1007-1 expressing cytb with alanine at codon 143 assessed as reduction in spore germination
[40] = system: Cercospora beticola; assay: Antifungal activity against Cercospora beticola isolate 11-1044-1 expressing cytb with alanine at codon 143 assessed as reduction in spore germination
[41] = system: Cercospora beticola; assay: Antifungal activity against Cercospora beticola isolate 11-1045-2 expressing cytb with alanine at codon 143 assessed as reduction in spore germination
[42] = system: Cercospora beticola; assay: Antifungal activity against Cercospora beticola isolate 11-1037-1 expressing cytb with alanine at codon 143 assessed as reduction in spore germination
[43] = system: Cercospora beticola; assay: Antifungal activity against Cercospora beticola isolate 11-1028-2 expressing cytb with alanine at codon 143 assessed as reduction in spore germination
[44] = system: Cercospora beticola; assay: Antifungal activity against Cercospora beticola isolate 11-1003-2 expressing cytb with alanine at codon 143 assessed as reduction in spore germination
[45] = system: Cercospora beticola; assay: Antifungal activity against Cercospora beticola isolate 11-1004-1 expressing cytb with alanine at codon 143 assessed as reduction in spore germination
[46] = system: Cercospora beticola; assay: Antifungal activity against Cercospora beticola isolate 98-9-M expressing cytb with glycine at codon 143 assessed as reduction in spore germination
[47] = system: Cercospora beticola; assay: Antifungal activity against Cercospora beticola isolate 11-1042-1 expressing cytb with alanine at codon 143 assessed as reduction in spore germination
[48] = system: Cercospora beticola; assay: Antifungal activity against Cercospora beticola isolate 11-1036-1 expressing cytb with alanine at codon 143 assessed as reduction in spore germination
[49] = system: Cercospora beticola; assay: Antifungal activity against Cercospora beticola isolate 11-1027-2 expressing cytb with alanine at codon 143 assessed as reduction in spore germination

Compound: COC(=O)N(OC)c1ccccc1COc1ccn(-c2ccc(Cl)cc2)n1 [PYRACLOSTROBIN]
- EC50 [1]: 72.2 µg/mL (≈ 186 µM)
- EC50 [2]: 5.23 µg/mL (≈ 13.5 µM)
- EC50 [3]: 8.79 µg/mL (≈ 22.7 µM)
- EC50 [4]: 32.6 µg/mL (≈ 84.1 µM)
- EC50 [5]: 26.2 µg/mL (≈ 67.6 µM)
- EC50 [6]: 6.37 µg/mL (≈ 16.4 µM)
- EC50 [7]: 3.24 µg/mL (≈ 8.35 µM)
- EC50 [8]: 0.003 µg/mL (≈ 0.00774 µM)
- EC50 [9]: 0.001 µg/mL (≈ 0.00258 µM)
- EC50 [10]: 5.55 µg/mL (≈ 14.3 µM)
- EC50 [11]: 22.3 µg/mL (≈ 57.6 µM)
- EC50 [12]: 47.4 µg/mL (≈ 122 µM)
- EC50 [13]: 41.7 µg/mL (≈ 108 µM)
- EC50 [14]: 4.82 µg/mL (≈ 12.4 µM)
- EC50 [15]: 0.006 µg/mL (≈ 0.0155 µM)
- EC50 [16]: 2.1 µg/mL (≈ 5.41 µM)
- EC50 [17]: 29.7 µg/mL (≈ 76.5 µM)
- EC50 [18]: 7.15 µg/mL (≈ 18.4 µM)
- EC50 [19]: 4.55 µg/mL (≈ 11.7 µM)
- EC50 [20]: 0.001 µg/mL (≈ 0.00258 µM)
- EC50 [21]: 5.92 µg/mL (≈ 15.3 µM)
- EC50 [22]: 7.86 µg/mL (≈ 20.3 µM)
- EC50 [23]: 31 µg/mL (≈ 80 µM)
- EC50 [24]: 12 µg/mL (≈ 31 µM)
- EC50 [25]: 20.4 µg/mL (≈ 52.7 µM)
- EC50 [26]: 0.001 µg/mL (≈ 0.00258 µM)
- EC50 [27]: 25.9 µg/mL (≈ 66.9 µM)
- EC50 [28]: 46 µg/mL (≈ 119 µM)
- EC50 [29]: 16.1 µg/mL (≈ 41.5 µM)
- EC50 [30]: 7.56 µg/mL (≈ 19.5 µM)
- EC50 [31]: 0.001 µg/mL (≈ 0.00258 µM)
- EC50 [32]: 5.03 µg/mL (≈ 13 µM)
- EC50 [33]: 39.9 µg/mL (≈ 103 µM)
- EC50 [34]: 51.7 µg/mL (≈ 133 µM)
- EC50 [35]: 9.54 µg/mL (≈ 24.6 µM)
- EC50 [36]: 0.001 µg/mL (≈ 0.00258 µM)
- EC50 [37]: 16.9 µg/mL (≈ 43.6 µM)
- EC50 [38]: 0.001 µg/mL (≈ 0.00258 µM)
- EC50 [39]: 4.78 µg/mL (≈ 12.3 µM)
- EC50 [40]: 14.3 µg/mL (≈ 36.8 µM)
- EC50 [41]: 16.2 µg/mL (≈ 41.9 µM)
- EC50 [42]: 40.9 µg/mL (≈ 105 µM)
- EC50 [43]: 4.53 µg/mL (≈ 11.7 µM)
- EC50 [44]: 0.915 µg/mL (≈ 2.36 µM)
- EC50 [45]: 5.34 µg/mL (≈ 13.8 µM)
- EC50 [46]: 0.001 µg/mL (≈ 0.00258 µM)
- EC50 [47]: 31.4 µg/mL (≈ 80.9 µM)
- EC50 [48]: 29.7 µg/mL (≈ 76.5 µM)
- EC50 [49]: 4.12 µg/mL (≈ 10.6 µM)
